Source: patent US11845752B2, “Substituted imidazo[1,5-a]pyrazines for the treatment of hepatitis B” (ALIGOS THERAPEUTICS, INC., priority 2020, dated 2023)

Test system: HBV
Assay: HBV-DNA antiviral assay using HepG2.117 cells (intracellular HBV DNA by qPCR)
Format: cell-based, HBV genotype D
Conditions: Hepatitis B virus, HepG2.117, 72 h, HBV DNA inhibition, 3 days incubation, read-out: EC50
Description: The following assay procedure describes the HBV antiviral assay, using HepG2.117 cells, which carry a stably integrated genotype D HBV genome under the control of a Tet-off promoter, and intracellular HBV DNA quantification as endpoint. Cell viability is assessed in parallel by measuring the intracellular ATP content using ATPlite (Perkin Elmer).
On day 0, HepG2.117 cells (which are maintained in routine cell culture with doxycycline present in the medium at a final concentration of 1 μg/mL) were seeded in 96-well plates (white with clear bottom) at a density of 2.0×10^4 cells/well (0.1 mL/well) in medium without doxycycline to induce pgRNA transcription and subsequent formation of HBV particles. The cells were incubated at 37° C. and 5% CO2.
On day 1, medium was removed from each well, the test articles were diluted in culture medium without doxcycyline and 100 μL was added to cell culture wells (9 concentrations, 4-fold dilution). For each plate, 6 untreated (merely DMSO) wells were included. The final concentration of DMSO in the culture medium was 2%. Each plate was prepared in duplicate (one for HBV DNA extraction, one for ATPlite measurement). The cells were incubated at 37° C. and 5% CO2 for 3 days.
On day 4, cell viability was assessed using ATPlite and cell lysates were prepared for HBV DNA extraction and subsequent quantification by qPCR.
Medium was removed from each well and 100 μL of 0.33% NP-40 in H2O was added to each well. Plates were sealed, incubated at 4° C. for 5 mins, vortexed extensively and centrifuged briefly. Next, 35 μL of lysate was added to 65 μL QuickExtract DNA Extraction Solution (Epicentre) in a PCR plate for each well. PCR plate was incubated at 65° C. for 6 mins, 98° C. for 2 mins and finally cooled to 4° C. HBV DNA was then quantified by qPCR with HBV-specific primers and probes as specified in Table 1 using the Bio-Rad SSOAdvanced Universal Probes Supermix on a CFX96 machine (Bio-Rad). The PCR cycle program consisted of 95° C. for 3 mins, followed by 40 cycles at 95° C. for 10 sec and 60° C. for 30 sec.
A DNA standard was prepared by dilution of an IDT gBlock corresponding to the amplicon with concentrations ranging from 10^2 to 10^8 copies/input (i.e. per 4 μL) and used to generate a standard curve by plotting Cq values vs. HBV DNA standard concentration. The quantity of HBV DNA in each sample was determined by interpolating from the standard curve.
Cell viability was calculated as follows: % Cell viability=(luminescence value of test sample)/(average luminescence value of 2% DMSO control)×100%. HBV DNA inhibition was calculated as follows: 100−(HBV DNA copy number of test sample)/(average HBV DNA copy number of 2% DMSO control)×100%. No normalization to entecavir was required due to the excellent dynamic window of this assay. The CC50, EC50 and EC90 values were determined by dose-response curves fitted using non-linear regression.

SMILES | EC50
C[C@@H]1Cn2c(c(C(=O)NCc3ccccc3-c3ncccn3)n(-c3ccc(OC[C@H](O)C(F)(F)F)cc3)c2=O)CN1C(=O)c1ccc(Br)c(C(F)(F)F)c1 (mixture of isomers) [Compound 75a, (6RS)-7-[4-bromo-3-(trifluoromethyl)benzoyl]-6-methyl-3-oxo-N-[(2-pyrimidin-2-ylphenyl)methyl]-2-[4-[(2S)-3,3,3-trifluoro-2-hydroxy-propoxy]phenyl]-6,8-dihydro-5H-imidazo[1,5-a]pyrazine-1-carboxamide] | < 50 nM
C[C@H]1Cn2c(c(C(=O)NCc3ccccc3-c3ncccn3)n(-c3ccc(OC[C@H](O)C(F)(F)F)cc3)c2=O)CN1C(=O)c1ccc(Br)c(C(F)(F)F)c1 (mixture of isomers) [Compound 75b, (6SR)-7-[4-bromo-3-(trifluoromethyl)benzoyl]-6-methyl-3-oxo-N-[(2-pyrimidin-2-ylphenyl)methyl]-2-[4-[(2S)-3,3,3-trifluoro-2-hydroxy-propoxy]phenyl]-6,8-dihydro-5H-imidazo[1,5-a]pyrazine-1-carboxamide] | 50 to 500 nM
C[C@@H]1Cn2c(c(C(=O)NCc3ccccc3-c3ccncn3)n(-c3ccc(N4CCN(C)[C@H](C(F)(F)F)C4)cc3)c2=O)CN1C(=O)c1ccc(Br)c(C(F)(F)F)c1 (mixture of isomers) [Compound 87a, (6RS)-7-[4-bromo-3-(trifluoromethyl)benzoyl]-6-methyl-2-[4-[(3S)-4-methyl-3-(trifluoromethyl)piperazin-1-yl]phenyl]-3-oxo-N-[(2-pyrimidin-4-ylphenyl)methyl]-6,8-dihydro-5H-imidazo[1,5-a]pyrazine-1-carboxamide] | 50 to 500 nM
C[C@H]1Cn2c(c(C(=O)NCc3ccccc3-c3ccncn3)n(-c3ccc(N4CCN(C)[C@H](C(F)(F)F)C4)cc3)c2=O)CN1C(=O)c1ccc(Br)c(C(F)(F)F)c1 (mixture of isomers) [Compound 87b, (6SR)-7-[4-bromo-3-(trifluoromethyl)benzoyl]-6-methyl-2-[4-[(3S)-4-methyl-3-(trifluoromethyl)piperazin-1-yl]phenyl]-3-oxo-N-[(2-pyrimidin-4-ylphenyl)methyl]-6,8-dihydro-5H-imidazo[1,5-a]pyrazine-1-carboxamide] | < 50 nM
C[C@H](O)Cn1ncc2cc(-n3c(C(=O)NCc4ccccc4-c4ncccn4)c4n(c3=O)C[C@@H](C)N(C(=O)c3ccc(Br)c(C(F)(F)F)c3)C4)ccc21 (mixture of isomers) [Compound 94a, (6RS)-7-[4-bromo-3-(trifluoromethyl)benzoyl]-2-[1-[(2S)-2-hydroxypropyl]indazol-5-yl]-6-methyl-3-oxo-N-[(2-pyrimidin-2-ylphenyl)methyl]-6,8-dihydro-5H-imidazo[1,5-a]pyrazine-1-carboxamide] | 50 to 500 nM
C[C@H](O)Cn1ncc2cc(-n3c(C(=O)NCc4ccccc4-c4ncccn4)c4n(c3=O)C[C@H](C)N(C(=O)c3ccc(Br)c(C(F)(F)F)c3)C4)ccc21 (mixture of isomers) [Compound 94b, (6SR)-7-[4-bromo-3-(trifluoromethyl)benzoyl]-2-[1-[(2S)-2-hydroxypropyl]indazol-5-yl]-6-methyl-3-oxo-N-[(2-pyrimidin-2-ylphenyl)methyl]-6,8-dihydro-5H-imidazo[1,5-a]pyrazine-1-carboxamide] | 50 to 500 nM
C[C@H]1Cn2c(c(C(=O)NCc3ccccc3-c3ncccn3)n(-c3ccc4c(cnn4C[C@@H](O)C(F)(F)F)c3)c2=O)CN1C(=O)c1ccc(Br)c(C(F)(F)F)c1 (mixture of isomers) [Compound 101b, (6SR)-7-[4-bromo-3-(trifluoromethyl)benzoyl]-6-methyl-3-oxo-N-[(2-pyrimidin-2-ylphenyl)methyl]-2-[1-[(2R)-3,3,3-trifluoro-2-hydroxy-propyl]indazol-5-yl]-6,8-dihydro-5H-imidazo[1,5-a]pyrazine-1-carboxamide] | < 50 nM
C[C@@H]1Cn2c(c(C(=O)NCc3ccccc3-c3ncccn3)n(-c3ccc4c(cnn4C[C@H](O)C(F)(F)F)c3)c2=O)CN1C(=O)c1ccc(Br)c(C(F)(F)F)c1 (mixture of isomers) [Compound 102a, (6RS)-7-[4-bromo-3-(trifluoromethyl)benzoyl]-6-methyl-3-oxo-N-[(2-pyrimidin-2-ylphenyl)methyl]-2-[1-[(2S)-3,3,3-trifluoro-2-hydroxy-propyl]indazol-5-yl]-6,8-dihydro-5H-imidazo[1,5-a]pyrazine-1-carboxamide] | 50 to 500 nM
C[C@H]1Cn2c(c(C(=O)NCc3ccccc3-c3ncccn3)n(-c3ccc4c(cnn4C[C@H](O)C(F)(F)F)c3)c2=O)CN1C(=O)c1ccc(Br)c(C(F)(F)F)c1 (mixture of isomers) [Compound 102b, (6SR)-7-[4-bromo-3-(trifluoromethyl)benzoyl]-6-methyl-3-oxo-N-[(2-pyrimidin-2-ylphenyl)methyl]-2-[1-[(2S)-3,3,3-trifluoro-2-hydroxy-propyl]indazol-5-yl]-6,8-dihydro-5H-imidazo[1,5-a]pyrazine-1-carboxamide] | < 50 nM
C[C@H]1Cn2c(c(C(=O)NCc3ccccc3-c3ncccn3)n(-c3ccc4nn(C[C@@H](O)C(F)(F)F)cc4c3)c2=O)CN1C(=O)c1ccc(Br)c(C(F)(F)F)c1 (mixture of isomers) [Compound 105b, (6SR)-7-[4-bromo-3-(trifluoromethyl)benzoyl]-6-methyl-3-oxo-N-[(2-pyrimidin-2-ylphenyl)methyl]-2-[2-[(2R)-3,3,3-trifluoro-2-hydroxy-propyl]indazol-5-yl]-6,8-dihydro-5H-imidazo[1,5-a]pyrazine-1-carboxamide] | 50 to 500 nM
C[C@@H]1Cn2c(c(C(=O)NCc3ccccc3-c3ncccn3)n(-c3ccc4nn(C[C@H](O)C(F)(F)F)cc4c3)c2=O)CN1C(=O)c1ccc(Br)c(C(F)(F)F)c1 (mixture of isomers) [Compound 107a, (6RS)-7-[4-bromo-3-(trifluoromethyl)benzoyl]-6-methyl-3-oxo-N-[(2-pyrimidin-2-ylphenyl)methyl]-2-[2-[(2S)-3,3,3-trifluoro-2-hydroxy-propyl]indazol-5-yl]-6,8-dihydro-5H-imidazo[1,5-a]pyrazine-1-carboxamide] | 50 to 500 nM
C[C@H]1Cn2c(c(C(=O)NCc3ccccc3-c3ncccn3)n(-c3ccc4nn(C[C@H](O)C(F)(F)F)cc4c3)c2=O)CN1C(=O)c1ccc(Br)c(C(F)(F)F)c1 (mixture of isomers) [Compound 107b, (6SR)-7-[4-bromo-3-(trifluoromethyl)benzoyl]-6-methyl-3-oxo-N-[(2-pyrimidin-2-ylphenyl)methyl]-2-[2-[(2S)-3,3,3-trifluoro-2-hydroxy-propyl]indazol-5-yl]-6,8-dihydro-5H-imidazo[1,5-a]pyrazine-1-carboxamide] | 50 to 500 nM
C[C@@H]1Cn2c(c(C(=O)NCc3ccccc3-c3ccn(CC(F)(F)F)n3)n(-c3ccc4c(cnn4C[C@@H](C)O)c3)c2=O)CN1C(=O)c1ccc(Br)c(C(F)(F)F)c1 (mixture of isomers) [Compound 111a, (6RS)-7-[4-bromo-3-(trifluoromethyl)benzoyl]-2-[1-[(2R)-2-hydroxypropyl]indazol-5-yl]-6-methyl-3-oxo-N-[[2-[1-(2,2,2-trifluoroethyl)pyrazol-3-yl]phenyl]methyl]-6,8-dihydro-5H-imidazo[1,5-a]pyrazine-1-carboxamide] | 50 to 500 nM
